Literature values as cited in patent US7091196B2, “Bifunctional heterocyclic compounds and methods of making and using same” (Rib-X Pharmaceuticals, Inc., priority 2002, dated 2006).

Details: literature report, Gregory et al. (1989) J. Med. Chem. 32: 1673-1681

SMILES: COC(=O)c1nnn(C[C@@H]2CN(c3ccc(C(C)=O)cc3)C(=O)O2)c1C(=O)OC [Compound 6]
- activity as an antibacterial agent: inactive
